{"source": "patent US20160113900A1", "about": "“INHIBITORS OF MITOCHONDRIAL STAT3 AND USES THEREOF IN MODULATION OF MAST CELL EXOCYTOSIS” (Yissum Research Development Company of the Hebrew …, priority 2014, published 2016)", "molecules": {"B1": {"name": "PIAS3-mito: PIAS3 fused to a mitochondrial target sequence, expressed from a transfected plasmid (SEQ ID NO. 16) (protein)", "chain": "MSVLTPLLLRGLTGSARRLPVPRAKIHSLLQVDSFRVSELQVLLGFAGRNKSGRKHELLAKALHLLKSSCAPSVQMKIKELYRRRFPRKTLGPSDLSLLSLPPGTSPPVHPDVTMKPLPFYEVYGELIRPTTLASTSSQRFEEAHFTFALTPQQLQQILTSREVLPGAKCDYTIQVQLRFCLCETSCPQEDYFPPNLFVKVNGKLCPLPGYLPPTKNGAEPKRPSRPINITPLARLSATVPNTIVVNWSSEFGRNYSLSVYLVRQLTAGTLLQKLRAKGIRNPDHSRALIKEKLTADPDSEVATTSLRVSLMCPLGKMRLTVPCRALTCAHLQSFDAALYLQMNEKKPTWTCPVCDKKAPYESLIIDGLFMEILNSCSDCDEIQFMEDGSWCPMKPKKEASEVCPPPGYGLDGLQYSAVQEGIQPESKKRVEVIDLTIESSSDEEDLPPTKKHCPVTSAAIPALPGSKGALTSGHQPSSVLRSPAMGTLGSDFLSSLPLHEYPPAFPLGADIQGLDLFSFLQTESQHYGPSVITSLDEQDTLGHFFQYRGTPSHFLGPLAPTLGSSHRSSTPAPPPGRVSSIVAPGSSLREGHGGPLPSGPSLTGCRSDVISLD"}}, "key": {"RBL cells [1]": {"tested_on": "RBL cells", "test": "β-Hexosaminidase release assay (degranulation) in RBL cells", "type": "cell-based, rat", "method": "(§1) RBL-2H3 cells were maintained in RPMI 1640 medium as previously described1. Bone marrow was isolated from 5-6 week-old mice, and BMMC were cultured in RPMI medium supplemented with 20 ng/ml interleukin-3 (IL-3) and 20 ng/ml SCF as previously described2, 3. Cells were generally grown for a minimum of 4 weeks and used when >90% of the population expressed FcεRI. BMMC and RBL cells were sensitized first with anti-DNP IgE monoclonal antibody (SPE-7; Sigma-Aldrich Corp.) and then challenged with DNP-BSA (Sigma-Aldrich Corp.). IgE antibody was centrifuged (18,000 g, 5 min) before use to remove aggregates. […] For glycolysis elimination cells were maintained in glucose-free RPMI supplemented with 10% dialyzed fetal calf serum and 5 mM galactose.\n1×104 RBL or 3×104 BMMC were immunologically activated as described above. After IgE incubation, the cells were washed three times with 5 mL of degranulation buffer (NaCl 130 mM, KCl 5 mM, Glucose 5.6 mM, MgCl2 1 mM, CaCl2 1.2 mM, Hepes pH 7.4 10 mM, BSA 0.1%) and resuspended in 200 μL of the same buffer with DNP-albumin for 30 min. The release of β-hexosaminidase was determined in triplicates in a 96-well plate. Aliquots (20 μL) of supernatants and cell lysates were incubated for 30 minutes with 100 μL of substrate solution (1.3 mg/mL p-nitrophenyl-b-D-2-acetamido-2-deoxyglucopyranozide in 0.1 M citrate [pH 4.51]). The reaction was stopped by the addition of 200 μL of 0.2 M glycine (pH 10.7). The plate OD was read in an enzyme-linked immunosorbent assay (ELISA) reader at a wavelength of 405 nm Percent release values for each experimental condition were calculated3."}, "RBL cells [2]": {"tested_on": "RBL cells", "test": "Oxygen consumption (Seahorse XF analyzer) in RBL cells", "type": "cell-based, rat", "settings": "for decrease in oxygen consumption: 40 μM U0126", "method": "as §1\nOxygen consumption rate (OCR) was measured using an XF24 extracellular flux analyzer (Seahorse Biosciences, North Billeric, Mass., USA)."}, "RBL cells [3]": {"tested_on": "RBL cells", "test": "ATP determination (ATPLite luminescence) in RBL cells", "type": "cell-based, rat", "method": "as §1\nATP levels were measured using the ATPLite luminescence-based assay according to the manufacturer's instructions (Perkin Elmer, Waltham, Mass., USA)."}, "[4]": {"tested_on": "STAT3 serine 727 phosphorylation", "test": "Western blot of STAT3 serine 727 phosphorylation in activated RBL cells", "type": "cell-based, rat", "method": "RBL cells were washed once in cold PBS prior to homogenization. 9×10^6 cells were homogenized in buffer A (320 mm sucrose, 5 mm Tris, 2 mm EGTA, pH 7.4) with 10 strokes of a Teflon Dounce homogenizer. The procedure was performed at 4° C. The homogenate was centrifuged for 3 min at 2000 g and the supernatant kept. This was repeated twice, and the supernatants combined then centrifuged for 3 min at 2000 g. to remove the nuclei and cell debris. The supernatant was transferred to a clean tube and centrifuged for 10 min at 12,000 g to pellet mitochondria, washed twice resuspended in a small volume of buffer A and stored at −70° C. In order to prepare mitoplasts, the mitochondrial pellet was resuspended in buffer A with the addition of 0.02% (w/v) digitonin. The pellet was resuspended and washed twice in large volumes of digitonin-free buffer A. […] Cells and mitochondria were vortexed and incubated on ice for 15 min. The lysates were then centrifuged at 14,000 g for 15 min and pellets were discarded. The protein concentration of each sample was determined using Bradford Reagent (Sigma-Aldrich). Proteins were resolved by 10-15% SDS-PAGE under reducing conditions and transferred to polyvinylidene difluoride membranes (Millipore Billerica, Ma). […] The membranes were washed three times with TBST for 5 mM before and after each incubation with secondary Ab. The proteins were detected with the appropriate secondary Ab (1 h; room temperature) coupled to HRP-conjugated goat anti-rabbit or anti-mouse Ab and visualized by chemiluminescence according to the manufacturer's instructions (Pierce)."}, "caspase3": {"tested_on": "caspase3", "test": "Western blot of caspase3 / cleaved caspase3 (apoptosis) in RBL cells", "type": "cell-based, rat", "settings": "activated RBL cells, 40 μM U0126", "method": "RBL cells and mitochondrial pellets were lysed by the addition of lysis buffer (50 mM Tris-HCl pH 7.4, 1% Nonidet P-40, 0.25% Na-deoxycholate, 150 mM NaCl, 1 mM EDTA, 1 mM PMSF) supplemented with 15 μl protease inhibitor (Sigma-Aldrich). Cells and mitochondria were vortexed and incubated on ice for 15 min. The lysates were then centrifuged at 14,000 g for 15 min and pellets were discarded. The protein concentration of each sample was determined using Bradford Reagent (Sigma-Aldrich). Proteins were resolved by 10-15% SDS-PAGE under reducing conditions and transferred to polyvinylidene difluoride membranes (Millipore Billerica, Ma). The membranes were incubated in 5% fat-free milk and TBST (10 mM Tris-HCl, pH 7.4, 150 mM NaCl, 0.1% Tween 20) for 1 h and then in 5% BSA and TBST containing various dilutions of primary Abs for 18 h at 4° C. The membranes were washed three times with TBST for 5 mM before and after each incubation with secondary Ab. The proteins were detected with the appropriate secondary Ab (1 h; room temperature) coupled to HRP-conjugated goat anti-rabbit or anti-mouse Ab and visualized by chemiluminescence according to the manufacturer's instructions (Pierce)."}, "[5]": {"target": "signal transducer and activator of transcription factor 3 (STAT3), mitochondrial, endogenous in RBL cells (rat (RBL cells)) (UniProt P52631)", "sequence (P52631 2-770 limits assumed)": "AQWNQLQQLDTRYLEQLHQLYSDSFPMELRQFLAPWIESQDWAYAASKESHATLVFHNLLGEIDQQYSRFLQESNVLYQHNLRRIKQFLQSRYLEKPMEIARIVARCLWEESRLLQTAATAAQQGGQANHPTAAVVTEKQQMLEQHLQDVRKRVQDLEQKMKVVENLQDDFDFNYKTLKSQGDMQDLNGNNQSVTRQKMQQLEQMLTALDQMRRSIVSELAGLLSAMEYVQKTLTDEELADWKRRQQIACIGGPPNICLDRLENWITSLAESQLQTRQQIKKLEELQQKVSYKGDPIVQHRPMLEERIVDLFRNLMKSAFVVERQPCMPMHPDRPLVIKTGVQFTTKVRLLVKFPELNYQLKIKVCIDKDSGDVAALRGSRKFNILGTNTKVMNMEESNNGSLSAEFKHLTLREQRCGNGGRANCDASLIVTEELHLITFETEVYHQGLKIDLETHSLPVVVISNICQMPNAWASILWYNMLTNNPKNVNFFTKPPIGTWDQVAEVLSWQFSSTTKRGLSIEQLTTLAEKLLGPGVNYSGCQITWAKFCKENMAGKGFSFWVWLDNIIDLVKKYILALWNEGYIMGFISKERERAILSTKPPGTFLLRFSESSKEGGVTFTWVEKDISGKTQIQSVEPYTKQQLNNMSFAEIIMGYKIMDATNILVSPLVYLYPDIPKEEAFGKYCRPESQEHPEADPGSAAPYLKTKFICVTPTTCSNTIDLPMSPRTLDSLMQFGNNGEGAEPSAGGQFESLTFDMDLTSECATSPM", "test": "cell-based or functional assay"}, "[6]": {"settings": "RBL cells transfected with PIAS3-mito vs empty plasmid"}}}
{"molecule": "COc1ccc(S(=O)(=O)Nc2cc(-c3c(O)ccc4ccccc34)c(O)c3ccccc23)cc1", "note": "[Mitocur C188-9, N-(1′,2-Dihydroxy-1,2′-binaphthalen-4′-yl)-4-methoxybenzenesulfonamide]", "values": [{"measurement": "degranulation", "setting": "RBL cells [1]; immunologically activated RBL cells, 250 μM C188-9, 10 min", "value": "abolished"}]}
{"molecule": "N#CC(=C(/N)Sc1ccccc1N)/C(C#N)=C(\\N)Sc1ccccc1N", "note": "[Mitocur U0126, reference compound]", "values": [{"measurement": "decrease in oxygen consumption", "setting": "RBL cells [2]; activated RBL cells", "value": "15.8±4.9", "unit": "%"}, {"measurement": "decrease in oxygen consumption", "setting": "RBL cells [2]; quiescent RBL cells", "value": "9.4±2.4", "unit": "%"}, {"measurement": "decrease in ATP levels", "setting": "RBL cells [3]; immunologically activated RBL cells, 20 min pre-treatment with 40 μM U0126", "value": "3.0±0.4", "unit": "%"}, {"measurement": "STAT3 727 serine phosphorylation, total cell level", "setting": "[4]; RBL cells, 40 μM U0126, activated 5 min", "value": "significant decrease"}, {"measurement": "STAT3 727 serine phosphorylation, mitochondrial level", "setting": "[4]; activated RBL cells fractionated into cytosol and mitochondria, 40 μM U0126", "value": "decrease"}, {"measurement": "caspase3 levels (apoptosis)", "setting": "caspase3", "value": "no change"}, {"measurement": "reduction in degranulation as compared to control", "setting": "RBL cells [1]; IgE-Ag stimulated RBL cells, 40 μM U0126, 20 min", "value": "33.0±0.6", "unit": "%"}, {"measurement": "degranulation levels at higher concentrations", "setting": "RBL cells [1]; RBL cells, U0126 above 40 μM (FIG. 12)", "value": "more profound reduction"}]}
{"molecule": "PIAS3 fused to a mitochondrial target sequence (PIAS3-mito) (from UniProt O54714 13-628)", "values": [{"measurement": "ATP levels of activated cells compared to control (empty plasmid)", "setting": "[5]", "value": 15.9, "unit": "% decrease"}, {"measurement": "degranulation (β-hexosaminidase release)", "setting": "[5]", "value": 67.5, "unit": "%"}]}
{"molecule": "B1", "values": [{"measurement": "oxygen consumption in activated cells compared to activated control cells", "setting": "RBL cells [2]; [6]", "value": "did not change"}, {"measurement": "decrease in ATP levels of activated cells compared to control", "setting": "RBL cells [3]; RBL cells transfected with PIAS3-mito vs empty plasmid, activated 5 min", "value": "15.9±1.6", "unit": "%"}, {"measurement": "decrease in degranulation", "setting": "RBL cells [1]; [6]", "value": "67.5±15.0", "unit": "%"}]}
